# Reference: PMC9633730, “Endowing homodimeric carbamoyltransferase GdmN with iterative functions through structural characterization and mechanistic studies” (Nature Communications, 2022)
# Tests used:
# [1] = biological target: T1, GdmN (Streptomyces hygroscopicus, UniProt Q84G19, V24Y/G157A/R158A/G188R); test: X-ray co-crystal structure; format: binding; conditions: reaction intermediate formed from ATP, MgCl2 and carbamoyl phosphate; carbamoyl group rotated
# T1 construct: homodimer; Kae1-like M1-L351, YrdC-like G368-A571, dimerization domain D574-L674; one iron ion per monomer
# [2] = biological target: GdmN (Streptomyces hygroscopicus XM201); test: SEC; Superdex 200 Increase 10/300 GL, buffer C (10 mM Tris, 150 mM NaCl, pH 8.0), calibrated with Bio-Rad gel filtration standards; monomer to dimer
# T1 sequence (Q84G19 entry or part of it V24Y/G157A/R158A/G188R): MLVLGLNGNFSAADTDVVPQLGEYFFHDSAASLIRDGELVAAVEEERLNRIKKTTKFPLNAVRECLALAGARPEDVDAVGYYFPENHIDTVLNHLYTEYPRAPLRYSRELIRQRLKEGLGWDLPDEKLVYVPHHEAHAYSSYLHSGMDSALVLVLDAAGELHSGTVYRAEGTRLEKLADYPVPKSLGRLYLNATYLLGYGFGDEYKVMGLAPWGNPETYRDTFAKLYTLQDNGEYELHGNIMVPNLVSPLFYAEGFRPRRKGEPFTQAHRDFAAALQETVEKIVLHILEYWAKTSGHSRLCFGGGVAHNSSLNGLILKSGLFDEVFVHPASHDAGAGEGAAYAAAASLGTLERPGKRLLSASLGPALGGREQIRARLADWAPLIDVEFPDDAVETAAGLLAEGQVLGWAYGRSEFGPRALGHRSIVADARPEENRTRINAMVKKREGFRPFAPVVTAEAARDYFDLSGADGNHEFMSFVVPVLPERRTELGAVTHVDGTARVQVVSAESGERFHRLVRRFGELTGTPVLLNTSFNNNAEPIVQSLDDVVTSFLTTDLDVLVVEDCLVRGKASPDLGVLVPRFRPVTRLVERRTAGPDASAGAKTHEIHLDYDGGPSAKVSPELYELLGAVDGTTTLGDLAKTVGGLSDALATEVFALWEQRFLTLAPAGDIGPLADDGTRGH
stoichiometry N [2],Compound,X-ray co-crystal structure [1]
–,NC(=O)OP(=O)(O)OC[C@H]1O[C@@H](n2cnc3c(N)ncnc32)[C@H](O)[C@@H]1O [carbamoyl-AMP],complex of GdmN V24Y/G157A/R158A/G188R mutant with carbamoyl-AMP (PDB: 7VZQ)
2,GdmN (enzyme),–
